According to PubChem BioAssay AID493193 (Broad Institute, 2011):
The source made the active and inactive calls. No rule for the calls is given here.

Tested on: U2OS HRE-luciferase reporter, luminescence, HIF pathway activation
Assay: PubChem AID 493193
Settings: not given

| Compound | AC40 |
| --- | --- |
| C[C@H](Nc1nc(-c2ccccn2)nnc1-c1ccccc1)C1CCCCC1 | 4.15 µM |
| c1ccc(-c2nnc(-c3ccccn3)nc2NCCc2ccccn2)cc1 | 15.4 µM |
| c1ccc(-c2nnc(-c3ccccn3)nc2N2CCC(c3ccccc3)C2)cc1 (stereo not given) | 3.55 µM |
| CC(C)(C)c1ccc(CNc2nc(-c3ccccn3)nnc2-c2ccccc2)cc1 | 2.09 µM |
| c1ccc(-c2nnc(-c3ccccn3)nc2NCc2cccnc2)cc1 | 24.3 µM |
| c1ccc(-c2cccc(CNc3nc(-c4ccccn4)nnc3-c3ccccc3)c2)cc1 | 2.15 µM |
| COc1cccc(CNc2nc(-c3ccccn3)nnc2-c2ccccc2)c1 | 4.85 µM |
| c1ccc(-c2nnc(-c3ccccn3)nc2N2CCC(C3CCCCC3)C2)cc1 (stereo not given) | 3.71 µM |
| Oc1ccc(CN2CCC3CCCCC3C2)c2cccnc12 (stereo not given) | 32.7 µM |
| COc1ccc(CNc2nc(-c3ccccn3)nnc2-c2ccccc2)cc1 | 5.05 µM |
| Clc1cccc(CNc2nc(-c3ccccn3)nnc2-c2ccccc2)c1 | 2.5 µM |
| c1ccc(-c2nnc(-c3ccccn3)nc2NCC2CCOCC2)cc1 | 26.1 µM |
| c1ccc(CCNc2nc(-c3ccccn3)nnc2-c2ccccc2)cc1 | 2.98 µM |
| c1ccc(-c2ccc(CNc3nc(-c4ccccn4)nnc3-c3ccccc3)cc2)cc1 | 1.92 µM |
| CC(C)(C)CCNc1nc(-c2ccccn2)nnc1-c1ccccc1 | 2.74 µM |
| C[C@@H](Nc1nc(-c2ccccn2)nnc1-c1ccccc1)C1CCCCC1 | 6.18 µM |
| Cc1ccc(CNc2nc(-c3ccccn3)nnc2-c2ccccc2)cc1C | 3.09 µM |
| CC(Nc1nc(-c2ccccn2)nnc1-c1ccccc1)c1ccccc1 (stereo not given) | 5.33 µM |
| C[C@@H](Nc1nc(-c2ccccn2)nnc1-c1ccccc1)c1ccccc1 | 6.45 µM |
| Oc1ccc(CN2CCc3ccccc3C2)c2cccnc12 | 19.5 µM |
| c1ccc(-c2nnc(-c3ccccn3)nc2NCc2ccccn2)cc1 | 26 µM |

Tested on: not listed separately
Assay: PubChem AID 493193
Settings: U2OS HRE-luciferase reporter, luminescence, HIF pathway activation; at 38 µM (top of the series)

| Compound | activation |
| --- | --- |
| N#CC1(c2ccccc2)CCN(Cc2ccc(O)c3ncccc23)CC1 | 9.09% (inactive) |
| OCC1CCN(Cc2ccc(O)c3ncccc23)CC1 | 8.79% (inactive) |
| CC(C)(C)OC(=O)N1CCN(Cc2ccc(O)c3ncccc23)CC1 | 4.98% (inactive) |
| CC1CN(Cc2ccc(O)c3ncccc23)CC(C)O1 (stereo not given) | 1.16% (inactive) |
| Oc1ccc(CN2CCC(Cc3ccccc3)CC2)c2cccnc12 | 14.5% (inactive) |
| Oc1ccc(CNC2CCc3ccccc32)c2cccnc12 (stereo not given) | 7.38% (inactive) |
| COc1ccccc1N1CCN(Cc2ccc(O)c3ncccc23)CC1 | 10.3% (inactive) |
| Oc1ccc(CNC2Cc3ccccc3C2)c2cccnc12 | 21.4% (inactive) |
| Oc1ccc(CN2CCc3ccccc3C2)c2cccnc12 | 0.929% (inactive) |
